Data as given in patent publication US12590096B2, “Imidazo[2,1-f][1,2,4]triazin-4-amine as TLR8 agonists” (BeOne Medicines | GmbH, priority 2019, dated 2026).
Where two headings read alike, the source gives them in different places.

How the values were obtained:
[1] = biological target: T1, human TLR 8 protein in HEK-blue hTLR 8 tool cell line (Homo sapiens, UniProt Q9NR97); experiment: TLR8 stimulation determined by HEK-Blue Detection (NF-κB/SEAP reporter); format: cell-based; conditions: HEK-Blue hTLR8 cells, 16 h incubation, relative to maximum activation by Resiquimod or motolimod; read-out: EC50 (nmol)
T1 construct: expressed in transfected cells; host or cells: HEK293 (HEK-Blue hTLR8)
T1 sequence (Q9NR97 27-1041): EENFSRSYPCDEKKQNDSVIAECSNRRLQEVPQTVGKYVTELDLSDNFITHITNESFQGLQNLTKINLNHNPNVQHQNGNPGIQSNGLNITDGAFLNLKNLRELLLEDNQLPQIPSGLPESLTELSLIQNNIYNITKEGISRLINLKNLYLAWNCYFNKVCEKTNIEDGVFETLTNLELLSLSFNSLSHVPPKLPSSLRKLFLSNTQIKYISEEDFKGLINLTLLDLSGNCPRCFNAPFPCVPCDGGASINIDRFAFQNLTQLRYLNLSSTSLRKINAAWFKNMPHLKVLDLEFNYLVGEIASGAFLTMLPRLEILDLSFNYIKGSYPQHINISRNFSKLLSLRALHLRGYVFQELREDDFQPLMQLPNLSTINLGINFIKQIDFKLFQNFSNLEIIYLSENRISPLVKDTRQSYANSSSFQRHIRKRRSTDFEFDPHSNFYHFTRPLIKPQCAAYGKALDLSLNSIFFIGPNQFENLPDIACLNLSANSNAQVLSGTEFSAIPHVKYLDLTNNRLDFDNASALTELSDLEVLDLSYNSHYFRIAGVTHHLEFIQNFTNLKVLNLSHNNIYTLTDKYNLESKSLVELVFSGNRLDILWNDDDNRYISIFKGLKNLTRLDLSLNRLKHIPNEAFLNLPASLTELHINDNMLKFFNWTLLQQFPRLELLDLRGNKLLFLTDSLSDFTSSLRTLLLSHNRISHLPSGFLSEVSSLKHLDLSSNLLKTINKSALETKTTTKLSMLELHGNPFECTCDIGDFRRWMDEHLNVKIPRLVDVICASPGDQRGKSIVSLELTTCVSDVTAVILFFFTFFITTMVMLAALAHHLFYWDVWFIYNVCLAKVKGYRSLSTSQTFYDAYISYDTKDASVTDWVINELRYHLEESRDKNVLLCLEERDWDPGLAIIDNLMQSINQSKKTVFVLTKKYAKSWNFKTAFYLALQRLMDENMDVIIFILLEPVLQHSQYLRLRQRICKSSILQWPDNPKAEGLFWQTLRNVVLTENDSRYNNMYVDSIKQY
Text: TLR8 Stimulation Determined by HEK-Blue Detection
This assay was designed to study the stimulation of human TLR 8 protein in HEK-blue hTLR 8 tool cell line by monitoring the activation of NF-κB. HEK-blue hTLR8 cells were obtained by co-transfection of hTLR8 gene and optimized secretory embryonic alkaline phosphatase (SEAP) reporter gene into HEK293 cells. SEAP reporter gene was put under the control of […] minimal promoter fused with five NF-κB and AP-1-binding sites. NF-κB and AP-1 were activated by stimulation with TLR 8 ligand, thus inducing the expression of SEAP. The level of SEAP can be easily determined by HEK-Blue Detection (a cell culture medium that allows real-time detection of SEAP). HEK-Blue Detection comprises all nutrients needed for cell growth and specific SEAP color substrates. The hydrolysis of substrate by SEAP produces purple/blue color which can be measured by spectrophotometer.
When growing to 50-80% confluence, HEK-Blue hTLR7/8 cells were plated into 96-well plates (costar 3599) at a density of 40,000 cells/well. Then, the compound serially diluted at 10 points with a final concentration ranging from 1 nM to 10 μm in 0.1% DMSO/HEK-Blue Detection was added. The plates were then incubated in 5% CO2 at 37° C. for 16 h. Optical density at 620-655 nm was read on BMG PHERAstar FSX instrument. The EC50 of each compound was determined by calculating the maximum activation percentage identified using Resiquimod or motolimod.
The EC50 of the tested compound of the present invention is as follows.

[2] = test system: PBMC (peripheral blood monocyte); experiment: PBMC determination: cytokines in culture supernatant measured by HTRF; format: cell-based; conditions: human PBMC, 24 h
Experimental: Determination of PBMC (Peripheral Blood Monocyte) Cell Preparation, Separation and Culture
Human whole blood was collected from healthy volunteers using BD Vacutainer® Lithium Heparin Tubes. PBMCs were prepared using Ficoll separation medium (GE Healthcare) by SopMate™ (STEMCELL). The cell survival rate was over 85% as monitored by Countstar. PBMCs were cultured in RPMI 1640 (Gibco) 10% (v/v) FBS (Gibco), 1×MEM NEAA (Gibco), 1× GlutaMAX (Gibco), 1 mM sodium pyruvate (Gibco), 50 uM 2-mercaptoethanol (sigma), and 100 U/ml penicillin-streptomycin (Thermo fisher Scientific).
PBMCs were plated into 96-well plates (costar 3894) with a density of 2×10^5 cells/well. Then, TLR7/8 compound was added, and serial dilution was carried out at ten points. The final concentration in 0.1% DMSO/RPMI 1640 ranged from 1 nM to 10 μM. Then, the plates were incubated in 5% CO2 at 37° C. for 24 h.
HTRF (Homogeneous Time-Resolved Fluorescence)
After the specified time point, according to the manufacturers recommendations, the cytokines in the cell culture supernatant were measured by Human IL6 kit (cisbio) and Human TNF alpha kit (cisbio). The EC50 of each compound was determined by calculating the maximum activation percentage identified using Resiquimod or Motolimod.

[3] = Human IL6 kit (HTRF), read-out: IL6 (EC50)
[4] = Human TNF alpha kit (HTRF), read-out: TNF-alpha (EC50)

Row | EC50 [1] [nM] | Structure (SMILES) | EC50 [2, 3] [nM] | EC50 [2, 4] [nM]
1 | 47 | CCC[C@H](C)Oc1nc(N)c2ncc(CC3CCN(CCN)CC3)n2n1 [Compound B38, (S)-7-((1-(2-aminomethyl)piperidin-4-yl)methyl)-2-(pent-2-yloxy)imidazo[2,1-f][1,2,4]triazin-4-amine] | 28 | 39
2 | 1290 | CCC[C@@H](C)Oc1nc(N)c2ncc(CC3CCNCC3)n2n1 [Compound B7, (R)-2-(pent-2-yloxy)-7-(piperidin-4-ylmethyl)imidazo[2,1-f][1,2,4]triazin-4-amine] | > 10000 | > 10000
3 | 20 | CCC[C@H](C)Oc1nc(N)c2ncc(CC3CCNC(C)C3)n2n1 (stereo partly drawn) [Compound B27, 7-((2-methylpiperidin-4-yl)methyl)-2-(((S)-pent-2-yl)oxy)imidazo[2,1-f][1,2,4]triazin-4-amine] | 228 | 326
4 | 921 | CCC[C@H](C)Oc1nc(N)c2ncc(C=C3CCNCC3)n2n1 [Compound B35, (S)-2-(pent-2-yloxy)-7-(piperidin-4-ylidenemethyl)imidazo[2,1-f][1,2,4]triazin-4-amine] |  | 
5 | 21 | CCC[C@H](C)Oc1nc(N)c2ncc(CC3CCN(CC(C)NC)CC3)n2n1 (single isomer, unassigned) [Compound B59, 7-((1-((S or R)-2-(methylamino)propyl)piperidin-4-yl)methyl)-2-(((S)-pent-2-yl)oxy)imidazo[2,1-f][1,2,4]triazin-4-amine] |  | 
6 | > 10000 | Nc1nc(OCC2CCOC2)nn2c(CC3CCNCC3)cnc12 (stereo not drawn) [Compound B46, 7-(piperidin-4-ylmethyl)-2-((tetrahydrofuran-3-yl)methoxy)imidazo[2,1-f][1,2,4]triazin-4-amine] |  | 
7 | > 10000 | CCCC(C)Oc1nc(N)c2ncc(CC3CCCCC3)n2n1 (stereo not drawn) [Compound B29, 7-(cyclohexylmethyl)-2-(pent-2-yloxy)imidazo[2,1-f][1,2,4]triazin-4-amine] |  | 
8 | 103 | CCC[C@H](C)Oc1nc(N)c2ncc(CC3CCC(NC)CC3)n2n1 (stereo partly drawn) [Compound B31, (S)-7-((4-(methylamino)cyclohexyl)methyl)-2-(pent-2-yloxy)imidazo[2,1-f][1,2,4]triazin-4-amine] |  | 
9 | 917 | CCCC(C)Nc1nc(N)c2ncc(CC3CCNCC3)n2n1 (stereo not drawn) [Compound B5, N2-(pent-2-yl)-7-(piperidin-4-ylmethyl)imidazo[2,1-f][1,2,4]triazin-2,4-diamine] |  | 
10 | 3860 | CCC[C@H](C)Oc1nc(N)c2ncc(CC3CCNCC3(C)C)n2n1 (stereo partly drawn) [Compound B53, 7-((3,3-dimethylpiperidin-4-yl)methyl)-2-(((S)-pent-2-yl)oxy)imidazol[2,1-f][1,2,4]triazin-4-amine] |  | 
11 | 15 | CCCC(C)Oc1nc(N)c2ncc(CC3CCNCC3)n2n1 (stereo not drawn) [Compound B2, 2-(pent-2-yloxy)-7-(piperidin-4-ylmethyl)imidazo[2,1-f][1,2,4]triazin-4-amine] |  | 
12 | 14.7 | CCC(CC)Oc1nc(N)c2ncc(CC3CCNCC3)n2n1 [Compound B48, 2-(pent-3-yloxy)-7-(piperidin-4-ylmethyl)imidazo[2,1-f][1,2,4]triazin-4-amine] |  | 
13 | > 10000 | CCC[C@H](C)Oc1nc(N)c2ncc(NC3CCNCC3)n2n1 [Compound B37, (S)-2-(pent-2-yloxy)-N7-(piperidin-4-yl)imidazo[2,1-f][1,2,4]triazin-4,7-diamine] |  | 
14 | 917 | CCC[C@H](C)Oc1nc(N)c2ncc(CC3CCNCC3C)n2n1 (stereo partly drawn) [Compound B60, 7-((3-methylpiperidin-4-yl)methyl)-2-(((S)-pent-2-yl)oxy)imidazo[2,1-f][1,2,4]triazin-4-amine] |  | 
15 | 387 | CCC[C@H](C)Oc1nc(N)c2ncc(CC3CCN(C4CCNC4)CC3)n2n1 (stereo partly drawn) [Compound B13, 2—(((S)-pent-2-yl)oxy)-7-((1-(pyrrolidin-3-yl)piperidin-4-yl)methyl)imidazo[2,1-f][1,2,4]triazin-4-amine] |  | 
16 | 24 | CCC[C@H](C)Oc1nc(N)c2ncc(CC3CCN(CC(C)NC)CC3)n2n1 (single isomer, unassigned) [Compound B58, 7-((1-((R or S)-2-(methylamino)propyl)piperidin-4-yl)methyl)-2-(((S)-pent-2-yl)oxy)imidazo[2,1-f][1,2,4]triazin-4-amine] |  | 
17 | > 10000 | CCCC(C)Oc1nc(N)c2ncc(CN3CCC(NC)CC3)n2n1 (stereo not drawn) [Compound B21, 7-((4-(methylamino)piperidin-1-yl)methyl)-2-(pent-2-yloxy)imidazo[2,1-f][1,2,4]triazin-4-amine] |  | 
18 | 766 | CCC[C@H](C)Oc1nc(N)c2ncc(C[C@H]3[C@@H]4CNC[C@@H]43)n2n1 [Compound B33, 7-(((1R,5S,6s)-3-azabicyclo[3.1.0]hex-6-yl)methyl)-2-(((S)-pent-2-yl)oxy)imidazo[2,1-f][1,2,4]triazin-4-amine] |  | 
19 | > 10000 | CCCC(C)Oc1nc(N)c2ncc(CC3CCOCC3)n2n1 (stereo not drawn) [Compound B36, 2-(pent-2-yloxy)-7-((tetrahydro-2H-pyran-4-yl)methyl)imidazo[2,1-f][1,2,4]triazin-4-amine] |  | 
20 | 515 | CCCC(C)Oc1nc(N)c2ncc(CC3(C)CCNCC3)n2n1 (stereo not drawn) [Compound B8, 7-((4-methylpiperidin-4-yl)methyl)-2-(pent-2-yloxy)imidazo[2,1-f][1,2,4]triazin-4-amine] |  | 
21 | 172 | CCC[C@H](C)Oc1nc(N)c2ncc(CC3CCCNC3)n2n1 (stereo partly drawn) [Compound B10, 2—(((S)-pent-2-yl)oxy)-7-(piperidin-3-ylmethyl)imidazo[2,1-f][1,2,4]triazin-4-amine] |  | 
22 | 308 | CCCC(CCO)Oc1nc(N)c2ncc(CC3CCNCC3)n2n1 (stereo not drawn) [Compound B28, 3-((4-amino-7-(piperidin-4-ylmethyl)imidazo[2,1-f][1,2,4]triazin-2-yl)oxy)hexan-1-ol] |  | 
23 | 24 | CCC[C@H](C)Oc1nc(N)c2ncc(CC3CCC4(CC3)CNC4)n2n1 [Compound B43, (S)-7-((2-azaspiro[3.5]non-7-yl)methyl)-2-(pent-2-yloxy)imidazo[2,1-f][1,2,4]triazin-4-amine] |  | 

Row | Structure (SMILES) | EC50 [1] [nM] | EC50 [2, 3] [nM] | EC50 [2, 4] [nM]
24 | CCCCOc1nc(N)c2ncc(CCC3CCNCC3)n2n1 [Compound B3, 2-butoxy-7-(2-(piperidin-4-yl)ethyl)imidazo[2,1-f][1,2,4]triazin-4-amine] | 346 |  | 
